Assay results as given in patent US20250011307A1, “CRYSTALLINE FORMS OF BIARYL YAP/TAZ-TEAD PROTEIN-PROTEIN INTERACTION INHIBITORS” (Novartis AG, priority 2021, published 2025).

Columns and labels:
Format in all cases: physicochemical
[1] = Solid state bulk stability stress test (HPLC degradation products, color, XRPD); parameters: key to CL color: A: No change; B: Slight discoloration; C: Medium discoloration; D: Strong discoloration; settings: Compound A forms
[2] = Excipient compatibility stress test (HPLC degradation products, color); parameters: key to CL color: A: No change; B: Slight discoloration; C: Medium discoloration; D: Strong discoloration; settings: Compound A forms
[3] = Solubility after equilibration at 25° C. for 24 h, with final pH and XRPD of solid residues; settings: Compound A forms
[4] = Hygroscopicity (loss on drying by TGA and XRPD, as is and after storage at 92% / 80% RH); settings: Compound A forms; for Loss on drying by TGA [%]: TGA temperature per cell: Modification A 110° C., amorphous 119° C., 4-hydroxybenzoate 200° C.
[5] = Xenon light stress test of bulk (HPLC degradation products, color, XRPD); parameters: key to CL color: A: No change; B: Slight discoloration; C: Medium discoloration; D: Strong discoloration; settings: Compound A forms, Xenon light (1200 kLuxh, 25° C.)
Experimental: (§1) X-ray powder diffraction (XRPD) patterns were obtained using a Bruker Advance D8 in reflection geometry. Powders were analyzed using a zero background Si flat sample holder. The radiation used was Cu Kα (A=1.5418 Å). Patterns were measured between 2° and 40° 2theta. • Sample amount: 5-10 mg • Sample holder: zero background Si flat sample holder
as §1, with “radiation” for “radiation used”, “(λ=1.5418” for “(A=1.5418”

[6] = 2 weeks 50° C./75% RH, 1% in mixture 1
[7] = 2 weeks 50° C./75% RH, 1% in mixture 2
[8] = 2 weeks 50° C./75% RH, 1% in mixture 3
[9] = 2 weeks 50° C./75% RH, HGC capsule powder
[10] = 2 weeks 50° C./75% RH, HPMC capsule powder
[11] = 2 weeks 70° C./11% RH, 1% in mixture 1
[12] = 2 weeks 70° C./11% RH, 1% in mixture 2
[13] = 2 weeks 70° C./11% RH, 1% in mixture 3
[14] = 2 weeks 70° C./11% RH, HGC capsule powder
[15] = 2 weeks 70° C./11% RH, HPMC capsule powder
[16] = 2 weeks 70° C./75% RH, 1% in mixture 1
[17] = 2 weeks 70° C./75% RH, 1% in mixture 2
[18] = 2 weeks 70° C./75% RH, 1% in mixture 3
[19] = 2 weeks 70° C./75% RH, HPC capsule powder
[20] = 2 weeks 70° C./75% RH, HPMC capsule powder

## CNC(=O)c1cnc(OCCO)c(F)c1-c1c(Cl)c(F)cc2c1C[C@](c1ccccc1)([C@@H]1CCCN1)O2 [Compound A 4-hydroxybenzoate, 4-((2S,4S)-5-Chloro-6-fluoro-2-phenyl-2-((S)-pyrrolidin-2-yl)-2,3-dihydrobenzofuran-4-yl)-5-fluoro-6-(2-hydroxyethoxy)-N-methylnicotinamide]
[1]; 2 weeks 50° C./75% RH
  Bulk (XRPD): No change
  CL color: A
  DP[%] degradation products, Bulk (HPLC): 0.2%
[1]; 2 weeks 80° C., 11% RH
  Bulk (XRPD): No change
  CL color: A
  DP[%] degradation products, Bulk (HPLC): 0.2%
[1]; 2 weeks 80° C./75% RH
  Bulk (XRPD): No change
  CL color: A
  DP[%] degradation products, Bulk (HPLC): 1.5%
[2]; [6]
  CL color: A
  DP[%] degradation products: 0.3%
[2]; [7]
  CL color: A
  DP[%] degradation products: 0.2%
[2]; [8]
  CL color: A
  DP[%] degradation products: 0.2%
[2]; [9]
  CL color: A
  DP[%] degradation products: 0.3%
[2]; [10]
  CL color: A
  DP[%] degradation products: 0.6%
[2]; [11]
  CL color: A
  DP[%] degradation products: 0.4%
[2]; [12]
  CL color: A
  DP[%] degradation products: 0.1%
[2]; [13]
  CL color: A
  DP[%] degradation products: 0.2%
[2]; [14]
  CL color: A
  DP[%] degradation products: 0.3%
[2]; [15]
  CL color: A
  DP[%] degradation products: 0.6%
[2]; [16]
  CL color: A
  DP[%] degradation products: 3.6%
[2]; [17]
  CL color: A
  DP[%] degradation products: 2.3%
[2]; [18]
  CL color: A
  DP[%] degradation products: 1.5%
[2]; [19]
  CL color: A
  DP[%] degradation products: 1.3%
[2]; [20]
  CL color: A
  DP[%] degradation products: 3.1%
[3]; FaSSIF V2 pH 6.5
  final pH: (6.55)
[3]; FaSSIF V2 pH 6.5, target concentration 20 mg/10 mL
  Sol. (solubility): >2, mg/mL
[3]; FeSSIF V2 pH 5.8
  final pH: (5.86)
[3]; FeSSIF V2 pH 5.8, target concentration 20 mg/10 mL
  Sol. (solubility): >2, mg/mL
[3]; SGF pH 2.0
  final pH: (2.36)
[3]; SGF pH 2.0, target concentration 20 mg/10 mL
  Sol. (solubility): >2, mg/mL
[3]; Water
  final pH: (7.66)
[3]; Water, target concentration 20 mg/10 mL
  Sol. (solubility): >2, mg/mL
[3]; pH 1.2, 100 mM HCl
  final pH: (1.18)
[3]; pH 1.2, 100 mM HCl, target concentration 20 mg/10 mL
  Sol. (solubility): >2, mg/mL
[3]; pH 3.0, 50 mM citrate buffer
  final pH: (3.12)
[3]; pH 3.0, 50 mM citrate buffer, target concentration 20 mg/10 mL
  Sol. (solubility): >2, mg/mL
[3]; pH 4.7, 50 mM acetate buffer
  final pH: (4.78)
[3]; pH 4.7, 50 mM acetate buffer, target concentration 20 mg/10 mL
  Sol. (solubility): >2, mg/mL
[3]; pH 6.8, 50 mM phosphate buffer
  final pH: (6.75)
[3]; pH 6.8, 50 mM phosphate buffer with 50 mM Na taurocholate
  final pH: (6.72)
[3]; pH 6.8, 50 mM phosphate buffer with 50 mM Na taurocholate, target concentration 20 mg/10 mL
  Sol. (solubility): >2, mg/mL
[3]; pH 6.8, 50 mM phosphate buffer, target concentration 20 mg/10 mL
  Sol. (solubility): >2, mg/mL
[4]; After 1 day at 80% RH
  XRPD: No change
  Loss on drying by TGA [%]: 0.6% (200° C.)
[4]; After 1 day at 92% RH
  XRPD: No change
  Loss on drying by TGA [%]: 0.7% (200° C.)
[4]; Hygroscopicity, before RH storage
  Loss on drying by TGA [%]: 0.5% (200° C.)
[5]; amber vial
  Bulk amber vial (XRPD): No change
  CL color: A
  DP[%] degradation products, Bulk amber vial (HPLC): 0.2%
[5]; clear vial
  Bulk clear vial (XPRD): No change
  CL color: A
  DP[%] degradation products, Bulk clear vial (HPLC): 0.2%
